The record followed here is ChEMBL document CHEMBL5257079, “Discovery of FXR/PPARγ dual partial agonist” (Bioorg Med Chem, 2023).

Activity calls are given as the source filed them. The calls are words filed in the database; no cut-off is given here.

Data set [1] concerns the target T1, Bile acid receptor (Homo sapiens, UniProt Q96RI1).
T1 sequence (Q96RI1 whole entry): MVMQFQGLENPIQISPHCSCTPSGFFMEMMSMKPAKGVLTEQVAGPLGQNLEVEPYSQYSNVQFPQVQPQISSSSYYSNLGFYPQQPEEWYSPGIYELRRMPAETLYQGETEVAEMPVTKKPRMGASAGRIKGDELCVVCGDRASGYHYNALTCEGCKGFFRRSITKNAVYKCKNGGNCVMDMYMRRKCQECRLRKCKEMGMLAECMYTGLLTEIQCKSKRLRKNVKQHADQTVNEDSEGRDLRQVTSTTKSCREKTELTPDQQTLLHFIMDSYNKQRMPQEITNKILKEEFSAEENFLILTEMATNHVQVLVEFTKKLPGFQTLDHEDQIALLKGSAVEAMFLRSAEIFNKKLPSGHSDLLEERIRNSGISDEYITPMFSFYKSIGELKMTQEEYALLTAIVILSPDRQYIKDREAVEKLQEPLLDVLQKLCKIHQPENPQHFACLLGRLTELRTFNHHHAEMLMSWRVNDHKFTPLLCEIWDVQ
In words: Partial agonist activity at FXR-LBD-GST (unknown origin) by TR-FRET assay. The note with it: read-out: EC50.

In data set [2] the target is T1, Bile acid receptor. In words: Partial agonist activity at human FXR expressed in Huh-7 cells in presence of CDCA by luciferase reporter gene assay. The data set is classed as cell-based. In general terms: In a reporter assay the amount or activity of a reporter protein is the signal.
In data set [3] the target is T1, Bile acid receptor. The experiment in a line: Antagonist activity at FXR-LBD-GST (unknown origin) in presence of GW4064.
Data set [4] has as its target T2, Bile acid receptor (Homo sapiens) (UniProt Q96RI1).
T2 sequence (whole entry): T1 sequence (Q96RI1 whole entry)
The experiment in a line: Antagonist activity at FXR-LBD-GST (unknown origin) in presence of GW4064 relative to control. More on the design: scale not given: the % may be the effect or the level left.

In data set [5] the target is T2, Bile acid receptor (Homo sapiens). In words: Partial agonist activity at FXR in human Huh-7 cells assessed as reduction in CDCA-induced BSEP gene expression at 10 uM by RT-PCR analysis. The data set is classed as cell-based. The settings on record: filed as partial agonist.
Data set [6] shares this target. The experiment in a line: Partial agonist activity at FXR in human Huh-7 cells assessed as reduction in CDCA-induced FAS gene expression at 10 uM by RT-PCR analysis. The settings on record: filed as partial agonist. The data set is classed as cell-based.
For data set [7] the target is unchanged. The experiment in a line: Partial agonist activity at FXR in human Huh-7 cells assessed as reduction in CDCA-induced SREBP gene expression at 10 uM by RT-PCR analysis. Type of data set: cell-based. The note with it: filed as partial agonist.
In data set [8] the target is T3, Peroxisome proliferator-activated receptor delta (Homo sapiens) (UniProt Q03181).
T3 sequence (whole entry): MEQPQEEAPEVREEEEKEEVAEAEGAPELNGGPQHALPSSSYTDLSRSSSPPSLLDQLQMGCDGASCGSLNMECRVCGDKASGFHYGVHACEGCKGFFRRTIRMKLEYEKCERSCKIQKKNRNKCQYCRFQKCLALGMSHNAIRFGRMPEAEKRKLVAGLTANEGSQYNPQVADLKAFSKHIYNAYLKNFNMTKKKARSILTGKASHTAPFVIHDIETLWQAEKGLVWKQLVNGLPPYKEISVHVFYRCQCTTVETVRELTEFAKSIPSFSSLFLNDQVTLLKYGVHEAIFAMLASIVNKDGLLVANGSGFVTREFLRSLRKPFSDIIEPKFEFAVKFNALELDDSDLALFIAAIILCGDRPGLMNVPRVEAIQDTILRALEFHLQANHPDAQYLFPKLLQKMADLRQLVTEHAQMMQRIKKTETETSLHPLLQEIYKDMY
The experiment in a line: Activation of PPARdelta (unknown origin) at 10 uM.

Data set [9] has as its target T4, Oxysterols receptor LXR-beta (Homo sapiens) (UniProt P55055).
T4 sequence (whole entry): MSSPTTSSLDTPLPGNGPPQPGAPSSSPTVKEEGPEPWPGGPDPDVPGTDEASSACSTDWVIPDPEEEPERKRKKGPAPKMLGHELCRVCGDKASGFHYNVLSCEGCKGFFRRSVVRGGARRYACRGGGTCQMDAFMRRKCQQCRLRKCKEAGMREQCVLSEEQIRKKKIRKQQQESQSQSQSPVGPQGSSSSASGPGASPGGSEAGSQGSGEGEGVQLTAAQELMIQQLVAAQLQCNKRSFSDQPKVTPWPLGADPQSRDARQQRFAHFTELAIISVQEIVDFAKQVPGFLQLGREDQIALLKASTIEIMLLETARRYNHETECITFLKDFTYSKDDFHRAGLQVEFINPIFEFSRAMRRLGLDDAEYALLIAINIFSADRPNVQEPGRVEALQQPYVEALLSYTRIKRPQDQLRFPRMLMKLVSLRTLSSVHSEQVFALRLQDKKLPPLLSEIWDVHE
In words: Activation of LXR beta (unknown origin) at 10 uM.

The target of data set [10] is T5, Retinoic acid receptor alpha (Homo sapiens) (UniProt P10276).
T5 sequence (whole entry): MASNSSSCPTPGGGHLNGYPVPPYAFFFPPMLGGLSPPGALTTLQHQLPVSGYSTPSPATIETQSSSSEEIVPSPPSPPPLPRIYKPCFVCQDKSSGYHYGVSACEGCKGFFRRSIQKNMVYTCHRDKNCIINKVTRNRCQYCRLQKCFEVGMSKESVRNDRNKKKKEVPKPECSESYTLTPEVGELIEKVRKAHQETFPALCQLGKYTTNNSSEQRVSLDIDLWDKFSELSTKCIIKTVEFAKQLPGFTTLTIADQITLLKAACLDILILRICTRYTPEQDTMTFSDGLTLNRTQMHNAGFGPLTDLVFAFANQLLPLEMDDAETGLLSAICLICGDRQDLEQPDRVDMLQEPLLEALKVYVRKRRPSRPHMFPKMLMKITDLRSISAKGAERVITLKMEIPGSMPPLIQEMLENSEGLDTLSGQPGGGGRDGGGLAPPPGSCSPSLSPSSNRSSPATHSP
The experiment in a line: Activation of RARalpha (unknown origin) at 10 uM.

The target of data set [11] is T6, G-protein coupled bile acid receptor 1 (Homo sapiens) (UniProt Q8TDU6).
T6 sequence (whole entry): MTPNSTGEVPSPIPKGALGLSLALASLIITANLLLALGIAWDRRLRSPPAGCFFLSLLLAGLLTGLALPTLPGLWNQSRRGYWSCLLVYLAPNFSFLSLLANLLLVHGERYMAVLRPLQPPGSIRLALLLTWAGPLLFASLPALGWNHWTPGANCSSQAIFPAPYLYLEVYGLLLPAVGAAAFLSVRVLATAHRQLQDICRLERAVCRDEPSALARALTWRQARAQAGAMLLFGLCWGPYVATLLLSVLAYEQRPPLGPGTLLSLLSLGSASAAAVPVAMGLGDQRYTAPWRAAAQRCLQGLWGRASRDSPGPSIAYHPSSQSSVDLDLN
The experiment in a line: Activation of TGR5 (unknown origin) at 10 uM.

The nature of data set [12]: Metabolic stability in mouse liver microsomes assessed as parent compound remaining after 30 mins. Type of data set: ADME, Microsome. The settings on record: read-out: Stability.
A short description of data set [13]: Metabolic stability in mouse liver microsomes assessed as half life. The data set is classed as ADME, Microsome. In general terms: Microsomes from liver hold many membrane-bound enzymes, among them those of drug oxidation.

As usually defined, the EC50 is the concentration that produces a half-maximal response. Broadly, the IC50 is the midpoint of a concentration-inhibition curve. The half-life is the time in which the quantity being followed falls by half. Take `CC(C)(C)c1ccc(-n2cnc3c(NC(=O)Cc4ccc(C(=O)O)cc4)cccc32)cc1`: the half-maximal effective concentration (EC50) on Bile acid receptor [1] was 250 nM; at Bile acid receptor [2] it was 1900 nM. Moreover, the concentration for half-maximal inhibition (IC50) at Bile acid receptor [3] is 20700 nM. In addition, the Activity in data set [4] came to 30%. Moreover, the result in data set [5], in data set [6] and in [7] was Active. Moreover, the result in data set [8], in data set [9], in [10] and in data set [11] was inactive. For the same compound, the remaining at 0.5 h in data set [12] came out at 69.5%. Also, the half-life in data set [13] was determined as 57 min.
